In ChEMBL document CHEMBL1201862, “PubChem BioAssay data set” (2004):
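Protocol summary: plate cells (96-well), add compound at 5 concentrations, incubate 48 h, interpolate endpoints linearly. GI50 is the concentration that inhibits growth by half.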 The source made the active and inactive calls. Cut-off read from the data, not from the text of the source: active = GI50 up to about 1.1 µM and inactive = higher.

Columns and labels:
Assay in all cases: DTP human tumour cell line panel, 48 h
[1] = test system: TK-10
[2] = test system: NCI/ADR-RES
[3] = test system: UACC-257
[4] = test system: HCT-15
[5] = test system: CAKI-1
[6] = test system: NCI-H226
[7] = test system: DU-145
[8] = test system: MDA-N
[9] = test system: SF-539
[10] = test system: ACHN
[11] = test system: HT-29
[12] = test system: LOX IMVI
[13] = test system: SNB-19
[14] = test system: MOLT-4
[15] = test system: OVCAR-4
[16] = test system: SR
[17] = test system: OVCAR-5
[18] = test system: EKVX
[19] = test system: HCC 2998
[20] = test system: Malme-3M
[21] = test system: SW-620
[22] = test system: HL-60
[23] = test system: SK-MEL-28
[24] = test system: UACC-62
[25] = test system: A549
[26] = test system: SK-MEL-2
[27] = test system: MDA-MB-231
[28] = test system: M14
[29] = test system: HOP-62
[30] = test system: NCI-H23
[31] = test system: OVCAR-3
[32] = test system: IGROV-1
[33] = test system: SN12C
[34] = test system: RPMI-8226
[35] = test system: SNB-75
[36] = test system: UO-31
[37] = test system: U-251
[38] = test system: COLO 205
[39] = test system: SK-OV-3
[40] = test system: K562
[41] = test system: NCI-H460
[42] = test system: RXF 393
[43] = test system: MDA-MB-435
[44] = test system: HCT-116
[45] = test system: SF-268
[46] = test system: CCRF-CEM
[47] = test system: MCF7
[48] = test system: 786-0
[49] = test system: SF-295
[50] = test system: SK-MEL-5
[51] = test system: T47D
[52] = test system: OVCAR-8
[53] = test system: PC-3
[54] = test system: KM12
[55] = test system: Hs-578T
[56] = test system: HOP-92
[57] = test system: NCI-H522

**Q.** How did the GI50 [1] turn out when `N=c1[nH]cnc2c1nnn2C1C=CC(COS(N)(=O)=O)C1` (configuration not stated) was run?
**A.** 3.18 µM (inactive)

**Q.** What about the GI50 [2] of the same molecule?
**A.** 5.2 µM (inactive)

**Q.** What about the GI50 [3] of the same molecule?
**A.** 14.7 µM (inactive)

**Q.** What about the GI50 [4] of the same molecule?
**A.** 6.5 µM

**Q.** What about the GI50 [5] of the same molecule?
**A.** 1.25 µM (inactive)

**Q.** And the GI50 [6]?
**A.** 4.43 µM (inactive)

**Q.** And the GI50 [7]?
**A.** 7.08 µM (inactive)

**Q.** And the GI50 [8]?
**A.** 3.94 µM (inactive)

**Q.** What about the GI50 [9] of the same molecule?
**A.** 1.85 µM (inactive)

**Q.** What about the GI50 [10] of the same molecule?
**A.** 4.65 µM (inactive)

**Q.** What about the GI50 [11] of the same molecule?
**A.** 7.33 µM (inactive)

**Q.** What about the GI50 [12] of the same molecule?
**A.** 4.56 µM (inactive)

**Q.** And the GI50 [13]?
**A.** 4.56 µM (inactive)

**Q.** And the GI50 [14]?
**A.** 15.6 µM (inactive)

**Q.** And the GI50 [15]?
**A.** 6.84 µM (inactive)

**Q.** What about the GI50 [16] of the same molecule?
**A.** 18 µM (inactive)

**Q.** What about the GI50 [17] of the same molecule?
**A.** 3.37 µM (inactive)

**Q.** And the GI50 [18]?
**A.** 28.9 µM (inactive)

**Q.** And the GI50 [19]?
**A.** 6.53 µM (inactive)

**Q.** And the GI50 [20]?
**A.** 15.8 µM (inactive)

**Q.** What about the GI50 [21] of the same molecule?
**A.** 11.6 µM (inactive)

**Q.** And the GI50 [22]?
**A.** 3.42 µM (inactive)

**Q.** And the GI50 [23]?
**A.** 3.21 µM (inactive)

**Q.** And the GI50 [24]?
**A.** 3.37 µM (inactive)

**Q.** And the GI50 [25]?
**A.** 10.5 µM (inactive)

**Q.** What about the GI50 [26] of the same molecule?
**A.** 3.01 µM (inactive)

**Q.** And the GI50 [27]?
**A.** 8.07 µM (inactive)

**Q.** And the GI50 [28]?
**A.** 7 µM (inactive)

**Q.** And the GI50 [29]?
**A.** 9.91 µM (inactive)

**Q.** And the GI50 [30]?
**A.** 1.95 µM (inactive)

**Q.** What about the GI50 [31] of the same molecule?
**A.** 10.7 µM (inactive)

**Q.** And the GI50 [32]?
**A.** 14.4 µM (inactive)

**Q.** What about the GI50 [33] of the same molecule?
**A.** 15.9 µM (inactive)

**Q.** And the GI50 [34]?
**A.** 3.59 µM (inactive)

**Q.** What about the GI50 [35] of the same molecule?
**A.** 4.05 µM (inactive)

**Q.** What about the GI50 [36] of the same molecule?
**A.** 5.62 µM (inactive)

**Q.** And the GI50 [37]?
**A.** 4.15 µM (inactive)

**Q.** What about the GI50 [38] of the same molecule?
**A.** 3.59 µM (inactive)

**Q.** And the GI50 [39]?
**A.** 24.6 µM (inactive)

**Q.** What about the GI50 [40] of the same molecule?
**A.** 5.47 µM (inactive)

**Q.** And the GI50 [41]?
**A.** 6.87 µM (inactive)

**Q.** What about the GI50 [42] of the same molecule?
**A.** 8.45 µM (inactive)

**Q.** What about the GI50 [43] of the same molecule?
**A.** 4.24 µM (inactive)

**Q.** And the GI50 [44]?
**A.** 5.24 µM (inactive)

**Q.** And the GI50 [45]?
**A.** 10.7 µM (inactive)

**Q.** What about the GI50 [46] of the same molecule?
**A.** 13.2 µM (inactive)

**Q.** And the GI50 [47]?
**A.** 10.4 µM (inactive)

**Q.** And the GI50 [48]?
**A.** 2.19 µM (inactive)

**Q.** What about the GI50 [49] of the same molecule?
**A.** 16.7 µM (inactive)

**Q.** And the GI50 [50]?
**A.** 3.13 µM (inactive)

**Q.** What about the GI50 [51] of the same molecule?
**A.** 3.94 µM (inactive)

**Q.** And the GI50 [52]?
**A.** 2.38 µM (inactive)

**Q.** And the GI50 [53]?
**A.** 3.93 µM (inactive)

**Q.** What about the GI50 [54] of the same molecule?
**A.** 9.68 µM (inactive)

**Q.** And the GI50 [55]?
**A.** 1.87 µM (inactive)

**Q.** `COC(=O)c1ccccc1C1=C([N+](=O)[O-])C(c2ccccc2)C(C#N)=C(N)O1` (configuration not stated) was tested. Which GI50 [1] did it give?
**A.** > 100 µM (inactive)

**Q.** What about the GI50 [2] of the same molecule?
**A.** > 100 µM (inactive)

**Q.** And the GI50 [3]?
**A.** > 100 µM (inactive)

**Q.** What about the GI50 [4] of the same molecule?
**A.** 19.8 µM

**Q.** What about the GI50 [6] of the same molecule?
**A.** > 100 µM (inactive)

**Q.** And the GI50 [7]?
**A.** 72.1 µM (inactive)

**Q.** What about the GI50 [8] of the same molecule?
**A.** > 100 µM (inactive)

**Q.** And the GI50 [9]?
**A.** > 100 µM (inactive)

**Q.** And the GI50 [10]?
**A.** 54.7 µM (inactive)

**Q.** What about the GI50 [11] of the same molecule?
**A.** 96.6 µM (inactive)

**Q.** What about the GI50 [12] of the same molecule?
**A.** > 100 µM (inactive)

**Q.** And the GI50 [13]?
**A.** > 100 µM (inactive)

**Q.** And the GI50 [14]?
**A.** 35 µM (inactive)

**Q.** What about the GI50 [16] of the same molecule?
**A.** 36.3 µM (inactive)

**Q.** And the GI50 [56]?
**A.** 50.1 µM (inactive)

**Q.** What about the GI50 [17] of the same molecule?
**A.** > 100 µM (inactive)

**Q.** And the GI50 [18]?
**A.** 10.5 µM (inactive)

**Q.** What about the GI50 [19] of the same molecule?
**A.** > 100 µM (inactive)

**Q.** What about the GI50 [21] of the same molecule?
**A.** 35.9 µM (inactive)

**Q.** And the GI50 [22]?
**A.** 42.8 µM (inactive)

**Q.** And the GI50 [23]?
**A.** > 100 µM (inactive)

**Q.** What about the GI50 [24] of the same molecule?
**A.** 30.7 µM (inactive)

**Q.** What about the GI50 [25] of the same molecule?
**A.** > 100 µM (inactive)

**Q.** What about the GI50 [26] of the same molecule?
**A.** > 100 µM (inactive)

**Q.** And the GI50 [27]?
**A.** > 100 µM (inactive)

**Q.** And the GI50 [28]?
**A.** > 100 µM (inactive)

**Q.** And the GI50 [29]?
**A.** > 100 µM (inactive)

**Q.** And the GI50 [30]?
**A.** 23.4 µM (inactive)

**Q.** What about the GI50 [31] of the same molecule?
**A.** 24.7 µM (inactive)

**Q.** What about the GI50 [32] of the same molecule?
**A.** > 100 µM (inactive)

**Q.** What about the GI50 [33] of the same molecule?
**A.** > 100 µM (inactive)

**Q.** And the GI50 [34]?
**A.** 34.5 µM (inactive)

**Q.** And the GI50 [35]?
**A.** 96.2 µM (inactive)

**Q.** What about the GI50 [37] of the same molecule?
**A.** > 100 µM (inactive)

**Q.** And the GI50 [38]?
**A.** 50.8 µM (inactive)

**Q.** What about the GI50 [39] of the same molecule?
**A.** > 100 µM (inactive)

**Q.** What about the GI50 [40] of the same molecule?
**A.** 33.7 µM (inactive)

**Q.** What about the GI50 [41] of the same molecule?
**A.** > 100 µM (inactive)

**Q.** What about the GI50 [42] of the same molecule?
**A.** 30.2 µM (inactive)

**Q.** And the GI50 [43]?
**A.** 72.8 µM (inactive)

**Q.** What about the GI50 [44] of the same molecule?
**A.** > 100 µM (inactive)

**Q.** And the GI50 [45]?
**A.** 31.8 µM (inactive)

**Q.** What about the GI50 [46] of the same molecule?
**A.** 30.1 µM (inactive)

**Q.** And the GI50 [48]?
**A.** 35.6 µM (inactive)

**Q.** What about the GI50 [57] of the same molecule?
**A.** 15 µM (inactive)

**Q.** And the GI50 [49]?
**A.** > 100 µM (inactive)

**Q.** And the GI50 [50]?
**A.** > 100 µM (inactive)

**Q.** And the GI50 [51]?
**A.** 37.7 µM (inactive)

**Q.** And the GI50 [52]?
**A.** 32.1 µM (inactive)

**Q.** And the GI50 [53]?
**A.** > 100 µM (inactive)

**Q.** And the GI50 [54]?
**A.** 56 µM (inactive)

**Q.** What about the GI50 [55] of the same molecule?
**A.** 18.1 µM (inactive)
